Experimental data taken from patent US7790721B2, “Pyrroloquinoxalinone inhibitors of poly(ADP-ribose)polymerase” (Abbott Laboratories, priority 2006, dated 2010).
Like-named read-outs stand apart in the source and are kept apart here.

Molecular target: T1, PARP-1 (Homo sapiens, UniProt P09874)
T1 construct: purchased Trevigen (Gaithersburg, Md.); host or cells: E. coli
Experiment: PARP1 assay (inhibition of PARP, [3H]-NAD+ / biotinylated histone H1, FlashPlate scintillation)
Format: biochemical

[1] = recombinant human PARP, 1 nM enzyme, 1.5 μM [3H]-NAD+, inhibition curves at various substrate concentrations, read-out: PARP-1 (Ki)

T1 sequence (P09874 whole entry): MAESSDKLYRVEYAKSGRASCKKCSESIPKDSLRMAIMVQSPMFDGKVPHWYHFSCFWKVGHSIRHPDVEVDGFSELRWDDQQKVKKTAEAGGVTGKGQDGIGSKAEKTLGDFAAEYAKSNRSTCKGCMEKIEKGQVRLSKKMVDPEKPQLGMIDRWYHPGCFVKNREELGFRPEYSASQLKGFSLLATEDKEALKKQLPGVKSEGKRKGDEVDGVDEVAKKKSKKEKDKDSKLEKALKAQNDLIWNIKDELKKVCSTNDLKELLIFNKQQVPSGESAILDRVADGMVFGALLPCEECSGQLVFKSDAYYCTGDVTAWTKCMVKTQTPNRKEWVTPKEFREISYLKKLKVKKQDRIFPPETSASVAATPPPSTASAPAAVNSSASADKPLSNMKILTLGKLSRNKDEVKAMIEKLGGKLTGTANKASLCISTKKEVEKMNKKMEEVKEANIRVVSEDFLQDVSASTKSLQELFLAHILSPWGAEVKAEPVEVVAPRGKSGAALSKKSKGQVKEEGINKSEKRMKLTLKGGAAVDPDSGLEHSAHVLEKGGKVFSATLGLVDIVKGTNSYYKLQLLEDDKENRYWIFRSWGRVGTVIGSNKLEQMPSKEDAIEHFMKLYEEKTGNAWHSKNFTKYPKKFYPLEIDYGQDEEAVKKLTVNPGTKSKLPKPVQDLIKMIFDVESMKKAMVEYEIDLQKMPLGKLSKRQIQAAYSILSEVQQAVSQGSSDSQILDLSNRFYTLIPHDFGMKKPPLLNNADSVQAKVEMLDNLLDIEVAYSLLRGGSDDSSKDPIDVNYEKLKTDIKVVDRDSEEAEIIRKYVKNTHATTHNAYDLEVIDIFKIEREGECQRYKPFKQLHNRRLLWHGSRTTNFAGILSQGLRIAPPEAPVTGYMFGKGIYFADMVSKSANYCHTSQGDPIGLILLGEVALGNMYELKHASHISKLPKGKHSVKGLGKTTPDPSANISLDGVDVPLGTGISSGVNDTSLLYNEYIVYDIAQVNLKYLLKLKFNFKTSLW
Method: Nicotinamide[2,5′,8-3H]adenine dinucleotide and strepavidin SPA beads were purchased from Amersham Biosiences (Buckinghamshire, U.K.). […] NAD^+, histone, aminobenzamide, 3-amino benzamide and Calf Thymus DNA (dcDNA) were purchased from Sigma (St. Louis, Mo.). […] Biotinylated histone H1 was prepared by treating the protein with Sulfo-NHS-LC-Biotin from Pierce (Rockford, Ill.). The biotinylation reaction was conducted by slowly and intermittently adding 3 equivalents of 10 mM Sulfo-NHS-LC-Biotin to 100 μM Histone H1 in phosphate-buffered saline, pH 7.5, at 4° C. with gentle vortexing over 1 minute followed by subsequent 4° C. incubation for 1 hour. Streptavidin coated (FLASHPLATE PLUS®) microplates were purchased from Perkin Elmer (Waltham, Mass.).
PARP1 assay was conducted in PARP assay buffer containing 50 mM Tris pH 8.0, 1 mM DTT, 4 mM MgCl2. […] Auto reactions utilizing SPA bead-based detection were carried out in 100 μL volumes in white 96 well plates. Reactions were initiated by adding 50 μl of 2× NAD^+ substrate mixture to 50 μL of 2× enzyme mixture containing PARP and DNA. […] 170 μL of the stopped reaction mixtures were transferred to streptavidin FLASHPLATE PLUS®, incubated for 1 hour, and counted using a TOPCOUNT® microplate scintillation counter from Perkin Elmer (Waltham, Mass.).

Compound | Ki [1] | Ki
8-(((2-ethoxyethyl)(methyl)amino)methyl)-5,6-dihydro-4H-pyrrolo[1,2-a][1,4]benzodiazepin-4-one [Example 30] | 2650 nM | –
O=c1[nH]c2cc(CNC3CCCCC3)ccc2n2cccc12 [Example 1, 7-((cyclohexylamino)methyl)pyrrolo[1,2-a]quinoxalin-4(5H)-one] | 474 nM | –
O=c1[nH]c2cc(CNCC3CCCCC3)ccc2n2cccc12 [Example 2, 7-(((cyclohexylmethyl)amino)methyl)pyrrolo[1,2-a]quinoxalin-4(5H)-one] | 91 nM | –
O=c1[nH]c2cc(CNC3CCC3)ccc2n2cccc12 [Example 3, 7-((cyclobutylamino)methyl)pyrrolo[1,2-a]quinoxalin-4(5H)-one] | 83 nM | –
O=c1[nH]c2cc(CNC3CCCC3)ccc2n2cccc12 [Example 4, 7-((cyclopentylamino)methyl)pyrrolo[1,2-a]quinoxalin-4(5H)-one] | 179 nM | –
O=c1[nH]c2ccc(CNC3CCCCC3)cc2n2cccc12 [Example 8, 8-((cyclohexylamino)methyl)pyrrolo[1,2-a]quinoxalin-4(5H)-one] | 99 nM | –
O=c1[nH]c2ccc(CNCC3CCCCC3)cc2n2cccc12 [Example 9, 8-(((cyclohexylmethyl)amino)methyl)pyrrolo[1,2-a]quinoxalin-4(5H)-one] | 206 nM | –
O=c1[nH]c2cc(CNCc3ccccc3)ccc2n2cccc12 [Example 11, 7-((benzylamino)methyl)pyrrolo[1,2-a]quinoxalin-4(5H)-one] | – | 127 nM
O=c1[nH]c2ccc(CNCCc3ccccc3)cc2n2cccc12 [Example 14, 8-(((2-phenylethyl)amino)methyl)pyrrolo[1,2-a]quinoxalin-4(5H)-one] | 98 nM | –
O=c1[nH]c2ccc(CNC3CCC3)cc2n2cccc12 [Example 16, 8-((cyclobutylamino)methyl)pyrrolo[1,2-a]quinoxalin-4(5H)-one] | 51 nM | –
O=c1[nH]c2ccc(CN3CCOCC3)cc2n2cccc12 [Example 17, 8-(morpholin-4-ylmethyl)pyrrolo[1,2-a]quinoxalin-4(5H)-one] | 130 nM | –
O=c1[nH]c2ccc(CNC3CCCC3)cc2n2cccc12 [Example 18, 8-((cyclopentylamino)methyl)pyrrolo[1,2-a]quinoxalin-4(5H)-one] | 79 nM | –
O=c1[nH]c2ccc(CN3CCCCC3)cc2n2cccc12 [Example 19, 8-(piperidin-1-ylmethyl)pyrrolo[1,2-a]quinoxalin-4(5H)-one] | 47 nM | –
O=c1[nH]c2ccc(CNCc3ccccc3)cc2n2cccc12 [Example 20, 8-((benzylamino)methyl)pyrrolo[1,2-a]quinoxalin-4(5H)-one] | 131 nM | –
O=c1[nH]c2cc(CN3CCCC3)ccc2n2ccnc12 [Example 21, 7-(pyrrolidin-1-ylmethyl)imidazo[1,2-a]quinoxalin-4(5H)-one] | 280 nM | –
O=c1[nH]c2cc(CN3CCCCC3)ccc2n2ccnc12 [Example 22, 7-(piperidin-1-ylmethyl)imidazo[1,2-a]quinoxalin-4(5H)-one] | 330 nM | –
CN(C)Cc1ccc2c(c1)[nH]c(=O)c1nccn12 [Example 23, 7-((dimethylamino)methyl)imidazo[1,2-a]quinoxalin-4(5H)-one] | 519 nM | –
O=c1[nH]c2cc(CNCC3CCCCC3)ccc2n2ccnc12 [Example 24, 7-(((cyclohexylmethyl)amino)methyl)imidazo[1,2-a]quinoxalin-4(5H)-one] | 5180 nM | –

Compound | Ki [1] | Ki
O=c1[nH]c2cc(CN3CCOCC3)ccc2n2ccnc12 [Example 25, 7-(morpholin4-ylmethyl)imidazo[1,2-a]quinoxalin-4(5H)-one] | 2850 nM | –
O=C1NCc2cc(CN3CCCC3)ccc2-n2cccc21 [Example 27, 8-(pyrrolidin-1-ylmethyl)-5,6-dihydro-4H-pyrrolo[1,2-a][1,4]benzodiazepin-4-one] | 1120 nM | –
CC(C)NCc1ccc2c(c1)CNC(=O)c1cccn1-2 [Example 28, 8-((isopropylamino)methyl)-5,6-dihydro-4H-pyrrolo[1,2-a][1,4]benzodiazepin-4-one] | 1470 nM | –
CN1CCN(Cc2ccc3c(c2)CNC(=O)c2cccn2-3)CC1 [Example 29, 8-((4-methylpiperazin-1-yl)methyl)-5,6-dihydro-4H-pyrrolo[1,2-a][1,4]benzodiazepin-4-one] | 1500 nM | –
O=C1NCc2cc(CNCC3CCCCC3)ccc2-n2cccc21 [Example 31, 8-(((cyclohexylmethyl)amino)methyl)-5,6-dihydro-4H-pyrrolo[1,2-a][1,4]benzodiazepin-4-one] | 1490 nM | –
O=C1NCc2cc(CNCc3ccccc3)ccc2-n2cccc21 [Example 32, 8-((benzylamino)methyl)-5,6-dihydro-4H-pyrrolo[1,2-a][1,4]benzodiazepin-4-one] | 809 nM | –
O=C1NCc2cc(CNC3CCCC3)ccc2-n2cccc21 [Example 33, 8-((cyclopentylamino)methyl)-5,6-dihydro-4H-pyrrolo[1,2-a][1,4]benzodiazepin-4-one] | 554 nM | –
O=C1Nc2cc(CNC3CCCCC3)ccc2N2CCCCC12 (centres unmarked) [Example 36, 3-[(cyclohexylamino)methyl]-7,8,9,10-tetrahydro-5H-pyrido[1,2-a]quinoxalin-6(6aH)-one] | 3490 nM | –
O=C1Nc2cc(CN3CCCCC3)ccc2N2CCCCC12 (centres unmarked) [Example 37, 3-(piperidin-1-ylmethyl)-7,8,9,10-tetrahydro-5H-pyrido[1,2-a]quinoxalin-6(6aH)-one] | 98 nM | –
CC(C)NCc1ccc2c(c1)NC(=O)C1CCCCN21 (centres unmarked) [Example 38, 3-[(isopropylamino)methyl]-7,8,9,10-tetrahydro-5H-pyrido[1,2-a]quinoxalin-6(6aH)-one] | 340 nM | –
CCN(C)Cc1ccc2c(c1)NC(=O)C1CCCCN21 (centres unmarked) [Example 39, 3-{[ethyl(methyl)amino]methyl}-7,8,9,10-tetrahydro-5H-pyrido[1,2-a]quinoxalin-6(6aH)-one] | 71 nM | –
CN(Cc1ccc2c(c1)NC(=O)C1CCCCN21)C1CCCCC1 (centres unmarked) [Example 40, 3-{[cyclohexyl(methyl)amino]methyl}-7,8,9,10-tetrahydro-5H-pyrido[1,2-a]quinoxalin-6(6aH)-one] | 1500 nM | –
CC(C)N(C)Cc1ccc2c(c1)NC(=O)C1CCCCN21 (centres unmarked) [Example 41, 3-{[isopropyl(methyl)amino]methyl}-7,8,9,10-tetrahydro-5H-pyrido[1,2-a]quinoxalin-6(6aH)-one] | 284 nM | –
CN1CCN(Cc2ccc3c(c2)NC(=O)C2CCCCN32)CC1 (centres unmarked) [Example 42, 3-[(4-methylpiperazin-1-yl)methyl]-7,8,9,10-tetrahydro-5H-pyrido[1,2-a]quinoxalin-6(6aH)-one] | 7790 nM | –
O=C1Nc2cc(CN3CCCCC3)ccc2N2CCCC12 (centres unmarked) [Example 45, 7-(piperidin-1-ylmethyl)-1,2,3,3a-tetrahydropyrrolo[1,2-a]quinoxalin-4(5H)-one] | 146 nM | –
CCN(C)Cc1ccc2c(c1)NC(=O)C1CCCN21 (centres unmarked) [Example 46, 7-{[ethyl(methyl)amino]methyl}-1,2,3,3a-tetrahydropyrrolo[1,2-a]quinoxalin-4(5H)-one] | 130 nM | –
CN(Cc1ccc2c(c1)NC(=O)C1CCCN21)C1CCCCC1 (centres unmarked) [Example 47, 7-{[cyclohexyl(methyl)amino]methyl}-1,2,3,3a-tetrahydropyrrolo[1,2-a]quinoxalin-4(5H)-one] | 2160 nM | –
